# The supplement of paper PMC10307832
# Assays:
# Assay in all cases: relative viability (nuclei count vs DMSO), 5 days (fraction); higher = more cells survive
# [1] = compound: C1=CC=C2C(=C1)C=CC(=C2SSC3=C(C=CC4=CC=CC=C43)O)O [IPA-3] + CC(=O)Nc1cccc(-n2c(=O)n(C3CC3)c(=O)c3c(Nc4ccc(I)cc4F)n(C)c(=O)c(C)c32)c1 [Trametinib] (partner 0.02 µM)
# Procedure, shortened: (§1)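 Five library-drug doses in √10 steps were combined with a fixed anchor-drug dose, or a single drug was given alone, by pin tool to lung cancer cell lines in 1536-well plates the day after seeding. Nuclei were stained and counted after 5 days. Relative viability is the nuclei count in treated wells over that in vehicle wells, taken as the median of duplicate plates.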
# [2] = compound: Cc1ccc(-n2nc(C(C)(C)C)cc2NC(=O)Nc2ccc(OCCN3CCOCC3)c3ccccc23)cc1 [Doramapimod] + CC(=O)Nc1cccc(-n2c(=O)n(C3CC3)c(=O)c3c(Nc4ccc(I)cc4F)n(C)c(=O)c(C)c32)c1 [Trametinib] (partner 0.02 µM)
# Procedure, shortened: as §1
# [3] = compound: Cn1c(Nc2ccc(C(F)(F)F)cc2)nc2cc(Oc3ccnc(-c4ncc(C(F)(F)F)[nH]4)c3)ccc21 [RAF265] + NC(=O)Nc1cc(-c2cccc(F)c2)sc1C(=O)N[C@H]1CCCNC1 [AZD7762] (partner 0.2 µM)
# Procedure, shortened: as §1
# [4] = compound: Cn1c(Nc2ccc(C(F)(F)F)cc2)nc2cc(Oc3ccnc(-c4ncc(C(F)(F)F)[nH]4)c3)ccc21 [RAF265] + O=C(c1cc(Cc2n[nH]c(=O)c3ccccc23)ccc1F)N1CCN(C(=O)C2CC2)CC1 [Olaparib] (partner 8 µM)
# Procedure, shortened: as §1
Cell Line,relative viability ([1]; first compound 0.2 µM),relative viability ([1]; first compound 0.6325 µM),relative viability ([1]; first compound 2 µM),relative viability ([1]; first compound 6.325 µM),relative viability ([1]; first compound 20 µM),relative viability ([2]; first compound 0.02 µM),relative viability ([2]; first compound 0.06325 µM),relative viability ([2]; first compound 0.2 µM),relative viability ([2]; first compound 0.6325 µM),relative viability ([2]; first compound 2 µM),relative viability ([3]; first compound 0.01 µM),relative viability ([3]; first compound 0.03162 µM),relative viability ([3]; first compound 0.1 µM),relative viability ([3]; first compound 0.3162 µM),relative viability ([3]; first compound 1 µM),relative viability ([4]; first compound 0.01 µM),relative viability ([4]; first compound 0.03162 µM),relative viability ([4]; first compound 0.1 µM),relative viability ([4]; first compound 0.3162 µM),relative viability ([4]; first compound 1 µM)
201T,0.73,0.679,0.714,0.744,0.786,0.736,0.715,0.729,0.772,0.71,0.596,0.578,0.653,0.668,0.783,0.839,0.804,0.887,0.824,0.828
A549,–,–,–,–,–,–,–,–,–,–,–,–,–,–,–,0.41,0.367,0.404,0.0957,0.0721
A-427,0.798,0.769,0.705,0.629,0.732,0.763,0.714,0.79,–,0.619,0.798,0.746,0.641,0.448,0.247,0.831,0.604,0.712,0.459,0.29
ABC-1,–,–,–,–,–,–,–,–,–,–,0.993,0.771,0.798,1.06,0.47,0.919,0.649,0.952,1.07,0.791
BEN,1.05,1.04,1.15,1.13,1.16,0.908,0.924,1.11,0.737,0.924,0.675,0.805,0.837,0.674,0.661,1.04,1.09,1.16,1.19,0.846
CAL-12T,0.505,0.366,0.232,0.338,0.457,0.333,0.325,0.342,0.402,0.297,0.56,0.631,0.678,0.598,0.504,0.84,0.645,0.677,0.592,0.593
COR-L23,0.743,0.557,0.654,0.579,0.21,0.675,0.651,0.588,0.607,0.616,–,–,–,–,–,0.395,0.329,0.305,0.307,0.184
COR-L 105,0.484,0.509,0.474,0.445,0.442,0.391,0.419,0.478,0.462,0.318,–,–,–,–,–,0.727,0.618,0.703,0.772,0.485
Calu-6,–,–,–,–,–,–,–,–,–,–,–,–,–,–,–,0.6,0.591,0.528,0.442,0.255
ChaGo-K-1,0.979,0.886,0.917,0.884,1,0.753,0.811,0.851,0.844,0.725,0.708,0.877,0.812,0.767,0.709,0.411,0.429,0.464,0.422,0.371
EBC-1,–,–,–,–,–,–,–,–,–,–,–,–,–,–,–,0.721,0.64,0.639,0.586,0.432
EKVX,0.403,0.314,0.359,0.38,0.376,0.32,0.268,0.328,0.352,0.313,0.685,0.777,0.706,0.412,0.298,0.806,0.866,0.966,0.646,0.653
EMC-BAC-2,0.938,0.843,0.829,0.914,0.812,0.884,0.816,0.894,0.873,0.766,1.09,1.03,0.675,0.724,0.486,0.576,0.43,0.407,0.371,0.167
EPLC-272H,0.327,0.337,0.273,0.301,0.319,0.25,0.294,0.302,–,0.291,0.213,0.181,0.223,0.161,0.15,0.685,0.499,0.428,0.209,0.161
H3255,0.756,0.573,0.629,0.554,0.606,0.581,0.522,0.626,–,0.522,0.931,1.01,0.877,–,0.623,0.589,0.568,0.538,–,0.454
HARA,0.884,0.899,0.63,0.591,1.02,0.634,0.414,0.749,0.602,0.5,0.315,0.128,0.303,0.419,0.221,0.859,0.871,0.812,0.65,0.438
HCC-15,0.444,0.352,0.391,0.422,0.436,0.341,0.306,0.331,0.293,0.292,1.31,1.17,1.12,1.27,1.18,0.837,0.647,0.656,0.608,0.43
HCC-44,1.09,1.04,1.13,0.984,1.05,1.08,1.2,1.11,1.18,1.06,1,0.985,1.03,1,0.955,0.977,0.985,0.998,0.984,1.01
HCC-78,0.832,0.714,0.806,0.849,0.918,0.802,0.724,0.767,0.763,0.819,0.634,0.863,0.731,0.269,0.567,1,0.876,1.06,0.864,0.724
